Assay results as given in ChEMBL document CHEMBL1147179, “Synthesis and antimicrobial activity of some novel phenyl and benzimidazole substituted benzyl ethers” (2007).
In brackets after ≈: the same amount, converted by molar mass. Activity calls are given as the source filed them. No cut-off for these calls is given here.

Legend:
Escherichia coli = test: Antibacterial activity against Escherichia coli ATCC 25922 at 100 ug/ml by diffusion method; format: functional, organism-based
Staphylococcus aureus [1] = test: Antibacterial activity against Staphylococcus aureus ATCC 25923 by macro-broth dilution assay; format: functional
Staphylococcus aureus [2] = test: Antibacterial activity against methicillin-resistant Staphylococcus aureus ATCC 43300 by macro-broth dilution assay; format: functional
Candida albicans = test: Antifungal activity against Candida albicans ATCC 10231 by macro-broth dilution assay; format: functional
Pichia kudriavzevii = test: Antifungal activity against Candida krusei ATCC 6258 by macro-broth dilution assay; format: functional

SMILES | Activity (Escherichia coli) | MIC (Staphylococcus aureus [1]) | MIC (Staphylococcus aureus [2]) | MIC (Candida albicans) | MIC (Pichia kudriavzevii)
O=C(O)c1cn(C2CC2)c2cc(N3CCNCC3)c(F)cc2c1=O | inactive |  |  |  | 
CC1(C)S[C@@H]2[C@H](NC(=O)[C@H](N)c3ccccc3)C(=O)N2[C@H]1C(=O)O [AMPICILLIN] | inactive | 0.78 µg/mL (≈ 2.23 µM) | 25 µg/mL (≈ 71.5 µM) |  | 
Clc1ccc(COC(Cn2cnc3ccccc32)c2ccccc2)c(Cl)c1 (stereo unspecified) | inactive | 3.12 µg/mL (≈ 7.85 µM) | 12.5 µg/mL (≈ 31.5 µM) | 25 µg/mL (≈ 62.9 µM) | 25 µg/mL (≈ 62.9 µM)
Clc1ccc(COC(Cn2ccnc2)c2ccc(Cl)cc2Cl)c(Cl)c1 (stereo unspecified) [MICONAZOLE] | inactive |  |  | 0.19 µg/mL (≈ 0.457 µM) | 0.78 µg/mL (≈ 1.87 µM)
Clc1ccc(COC(Cn2cnc3ccccc32)c2ccccc2)cc1 (stereo unspecified) | inactive | 3.12 µg/mL (≈ 8.6 µM) | 12.5 µg/mL (≈ 34.4 µM) | 25 µg/mL (≈ 68.9 µM) | 25 µg/mL (≈ 68.9 µM)
Brc1ccc(COC(Cn2cnc3ccccc32)c2ccccc2)cc1 (stereo unspecified) | inactive | 3.12 µg/mL (≈ 7.66 µM) | 12.5 µg/mL (≈ 30.7 µM) | 25 µg/mL (≈ 61.4 µM) | 25 µg/mL (≈ 61.4 µM)
Clc1ccc(COC(Cn2cnc3ccccc32)c2ccccc2)cc1Cl (stereo unspecified) | inactive | 3.12 µg/mL (≈ 7.85 µM) | 25 µg/mL (≈ 62.9 µM) | 12.5 µg/mL (≈ 31.5 µM) | 25 µg/mL (≈ 62.9 µM)
Clc1ccc(Cl)c(COC(Cn2cnc3ccccc32)c2ccccc2)c1 (stereo unspecified) | inactive |  |  |  | 
FC(F)(F)c1ccc(COC(Cn2cnc3ccccc32)c2ccccc2)cc1 (stereo unspecified) | inactive | 6.25 µg/mL (≈ 15.8 µM) | 12.5 µg/mL (≈ 31.5 µM) | 25 µg/mL (≈ 63.1 µM) | 12.5 µg/mL (≈ 31.5 µM)
OC(Cn1cncn1)(Cn1cncn1)c1ccc(F)cc1F [FLUCONAZOLE] | inactive |  |  | 0.78 µg/mL (≈ 2.55 µM) | 25 µg/mL (≈ 81.6 µM)
Fc1ccc(COC(Cn2cnc3ccccc32)c2ccccc2)cc1 (stereo unspecified) | inactive | 12.5 µg/mL (≈ 36.1 µM) | 25 µg/mL (≈ 72.2 µM) | 25 µg/mL (≈ 72.2 µM) | 25 µg/mL (≈ 72.2 µM)
c1ccc(COC(Cn2cnc3ccccc32)c2ccccc2)cc1 (stereo unspecified) | inactive | 25 µg/mL (≈ 76.1 µM) | 25 µg/mL (≈ 76.1 µM) | 25 µg/mL (≈ 76.1 µM) | 25 µg/mL (≈ 76.1 µM)
Clc1cccc(Cl)c1COC(Cn1cnc2ccccc21)c1ccccc1 (stereo unspecified) | inactive | 3.12 µg/mL (≈ 7.85 µM) | 6.25 µg/mL (≈ 15.7 µM) | 12.5 µg/mL (≈ 31.5 µM) | 12.5 µg/mL (≈ 31.5 µM)
